Our source for the EC50 values is patent publication US12454529B2, “Piperazine cyclic ureas” (SIRONAX LTD., priority 2020, dated 2025).

Molecules are shown by their SMILES.

The first assay has as its system HT-29 cells. In words: HT-29 cell necrosis/necroptosis inhibition (TNF-α + SMAC mimetic + zVAD-FMK; CellTiter-Glo cell viability). It is filed as cell-based. Conditions: Homo sapiens, HT-29, 20 h, read-out: EC50 (Cell activity; Necrosis/Necroptosis Inhibitory Activity, Compounds 1-142). The gist of the method: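 HT-29 cells (~5,000/well) were switched to FBS-free McCOY's 5A holding TNF-α (10 ng/ml), SMAC mimetic (6 μM) and zVAD-FMK (10 μM), then dosed with a 10-point 1:3 series for 20 h at 37 °C. CellTiter-Glo luminescence gave viability; geometric mean EC50 from duplicates.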
As to `Cc1nn(C[C@H]2CO2)c(C)c1-c1nc(N2CCN(C(=O)N3N=CC[C@H]3c3cc(F)cc(C#N)c3)CC2)ncc1F` [Compound 134, 3-((S)-1-(4-(4-(3,5-dimethyl-1-(((S)-oxiran-2-yl)methyl)-1H-pyrazol-4-yl)-5-fluoropyrimidin-2-yl)piperazine-1-carbonyl)-4,5-dihydro-1H-pyrazol-5-yl)-5-fluorobenzonitrile], the EC50 is 0.1 to 100 nM.

Staying with this assay, now noted: Homo sapiens; HT-29 cells, TNF-α 10 ng/ml + SMAC mimetic 6 μM + zVAD-FMK 10 μM, 20 hours; geometric mean, 10 points in duplicate; read-out: EC50 (Cell activity; Necrosis/Necroptosis Inhibitory Activity, Compounds 1-142).
On to `Cc1nn(CCC2CCOCC2)c(C)c1-c1nc(N2CCN(C(=O)N3N=CC[C@H]3c3cc(F)cc(C#N)c3)CC2)ncc1F` [Compound 138, (S)-3-(1-(4-(4-(3,5-dimethyl-1-(2-(tetrahydro-2H-pyran-4-yl)ethyl)-1H-pyrazol-4-yl)-5-fluoropyrimidin-2-yl)piperazine-1-carbonyl)-4,5-dihydro-1H-pyrazol-5-yl)-5-fluorobenzonitrile], for which the EC50 fell in the range of 0.1 to 100 nM. Take `Cn1ncc(Cl)c1-c1nc(N2CCN(C(=O)N3N=CC[C@H]3c3cc(F)cc(F)c3)CC2)ncc1F` [Compound 68, (S)-(4-(4-(4-chloro-1-methyl-1H-pyrazol-5-yl)-5-fluoropyrimidin-2-yl)piperazin-1-yl)(5-(3,5-difluorophenyl)-4,5-dihydro-1H-pyrazol-1-yl)methanone]: the EC50 was 0.1 to 100 nM. The same measure, in the same setting: with `Cc1cc(-c2nc(N3CCN(C(=O)N4N=CC[C@H]4c4cc(F)cc(C#N)c4)CC3)ncc2F)n(C)n1` [Compound 84, (S)-3-(1-(4-(4-(1,3-dimethyl-1H-pyrazol-5-yl)-5-fluoropyrimidin-2-yl)piperazine-1-carbonyl)-4,5-dihydro-1H-pyrazol-5-yl)-5-fluorobenzonitrile] the figure was 0.1 to 100 nM. On the same count and under the same terms, as for `COC(=O)c1cc(C)n(-c2nc(N3CCN(C(=O)N4N=CC[C@H]4c4cc(F)cc(F)c4)CC3)ncc2F)c1` [Compound 91, methyl (5)-1-(2-(4-(5-(3,5-difluorophenyl)-4,5-dihydro-1H-pyrazole-1-carbonyl)piperazin-1-yl)-5-fluoropyrimidin-4-yl)-5-methyl-1H-pyrrole-3-carboxylate], the figure is 0.1 to 100 nM; as for `Cc1n[nH]c(C)c1-c1nc(N2CCN(C(=O)N3N=CC[C@H]3c3cc(F)cc(F)c3)CC2)ncc1F` [Compound 93, (S)-(5-(3,5-difluorophenyl)-4,5-dihydro-1H-pyrazol-1-yl)(4-(4-(3,5-dimethyl-1H-pyrazol-4-yl)-5-fluoropyrimidin-2-yl)piperazin-1-yl)methanone], 0.1 to 100 nM.

Consider `Cn1cccc(-c2nc(N3CCN(C(=O)N4N=CC[C@H]4c4cc(F)cc(F)c4)CC3)ncc2F)c1=O` [Compound 88, (S)-3-(2-(4-(5-(3,5-difluorophenyl)-4,5-dihydro-1H-pyrazole-1-carbonyl)piperazin-1-yl)-5-fluoropyrimidin-4-yl)-1-methylpyridin-2(1H)-one], for which the EC50 is 0.1 to 100 nM. In the case of `Cc1nnc(-c2nc(N3CCN(C(=O)N4N=CC[C@H]4c4cc(F)cc(F)c4)CC3)ncc2F)s1` [Compound 63, (S)-(5-(3,5-difluorophenyl)-4,5-dihydro-1H-pyrazol-1-yl)(4-(5-fluoro-4-(5-methyl-1,3,4-thiadiazol-2-yl)pyrimidin-2-yl)piperazin-1-yl)methanone], the half-maximal effective concentration (EC50) fell in the range of 0.1 to 100 nM.

Regarding `NC(=O)c1cnn(-c2nc(N3CCN(C(=O)N4N=CC[C@H]4c4ccccc4)CC3)ncc2F)c1` [Compound 111, (S)-1-(5-fluoro-2-(4-(5-phenyl-4,5-dihydro-1H-pyrazole-1-carbonyl)piperazin-1-yl)pyrimidin-4-yl)-1H-pyrazole-4-carboxamide], the EC50 fell in the range of 0.1 to 100 nM. Take `CCn1c(C)nn(-c2nc(N3CCN(C(=O)N4N=CC[C@H]4c4cc(F)cc(C#N)c4)CC3)ncc2F)c1=O` [Compound 97, (S)-3-(1-(4-(4-(4-ethyl-3-methyl-5-oxo-4,5-dihydro-1H-1,2,4-triazol-1-yl)-5-fluoropyrimidin-2-yl)piperazine-1-carbonyl)-4,5-dihydro-1H-pyrazol-5-yl)-5-fluorobenzonitrile]: the EC50 was 0.1 to 100 nM.

Still in this assay, the particulars now being: Homo sapiens; HT-29 cells, TNF-α 10 ng/ml + SMAC mimetic 6 μM + zVAD-FMK 10 μM, 20 hours; geometric mean, 10 points in duplicate; read-out: EC50 (Cell activity; Necrosis/Necroptosis Inhibitory Activity, Compounds 143-323).
`Cc1nc(C)n(-c2nc(N3CCN(C(=O)N4N=CC[C@H]4c4cc(F)cc(F)c4)CC3)c(F)cc2F)n1` [Compound 232, (S)-(5-(3,5-difluorophenyl)-4,5-dihydro-1H-pyrazol-1-yl)(4-(6-(3,5-dimethyl-1H-1,2,4-triazol-1-yl)-3,5-difluoropyridin-2-yl)piperazin-1-yl)methanone]: the EC50 was in the range of 0.1 to 100 nM.

Turning to `Cc1nn(-c2cc(N3CCN(C(=O)N4N=CC[C@H]4c4cncc(F)c4)CC3)ncn2)c(C)c1C#N` [Compound 286, (S)-1-(6-(4-(5-(5-fluoropyridin-3-yl)-4,5-dihydro-1H-pyrazole-1-carbonyl)piperazin-1-yl)pyrimidin-4-yl)-3,5-dimethyl-1H-pyrazole-4-carbonitrile], the EC50 was in the range of 0.1 to 100 nM. Same read-out and setting: with `Cc1nn(-c2cc(N3CCN(C(=O)N4N=CC[C@H]4c4cc(F)cc(C#N)c4)CC3)ncn2)c(C)c1Cl` [Compound 289, (S)-3-(1-(4-(6-(4-chloro-3,5-dimethyl-1H-pyrazol-1-yl)pyrimidin-4-yl)piperazine-1-carbonyl)-4,5-dihydro-1H-pyrazol-5-yl)-5-fluorobenzonitrile] the figure was 0.1 to 100 nM; with `Cc1nn(-c2cc(N3CCN(C(=O)N4N=CC[C@H]4c4cncc(F)c4)CC3)ncn2)c(C)c1C(N)=O` [Compound 284, (S)-1-(6-(4-(5-(5-fluoropyridin-3-yl)-4,5-dihydro-1H-pyrazole-1-carbonyl)piperazin-1-yl)pyrimidin-4-yl)-3,5-dimethyl-1H-pyrazole-4-carboxamide], 100 to 1000 nM; with `Cc1nc(C)n(-c2nc(N3CCN(C(=O)N4N=CCC4c4cc(Br)cc(F)c4F)CC3)ncc2F)n1` (centres unmarked) [Compound 237, (5-(5-bromo-2,3-difluorophenyl)-4,5-dihydro-1H-pyrazol-1-yl)(4-(4-(3,5-dimethyl-1H-1,2,4-triazol-1-yl)-5-fluoropyrimidin-2-yl)piperazin-1-yl)methanone], 0.1 to 100 nM. The same measure, in the same setting: with `Cc1nn(-c2ccnc(N3CCN(C(=O)N4N=CC[C@H]4c4cc(F)cc(C#N)c4)CC3)n2)c(C)c1Cl` [Compound 288, (S)-3-(1-(4-(4-(4-chloro-3,5-dimethyl-1H-pyrazol-1-yl)pyrimidin-2-yl)piperazine-1-carbonyl)-4,5-dihydro-1H-pyrazol-5-yl)-5-fluorobenzonitrile] the figure was 0.1 to 100 nM; with `Cc1nc(C2CC=NN2C(=O)N2CCN(c3nc(-c4c(C)cnn4C)ccc3F)CC2)cs1` (centres unmarked) [Compound 298, (4-(6-(1,4-dimethyl-1H-pyrazol-5-yl)-3-fluoropyridin-2-yl)piperazin-1-yl)(5-(2-methylthiazol-4-yl)-4,5-dihydro-1H-pyrazol-1-yl)methanone], 0.1 to 100 nM; with `Cc1nnc(-c2nc(N3CCN(C(=O)N4N=CC[C@H]4c4cc(F)cc(C#N)c4)CC3)ccc2F)s1` [Compound 172, (S)-3-fluoro-5-(1-(4-(5-fluoro-6-(5-methyl-1,3,4-thiadiazol-2-yl)pyridin-2-yl)piperazine-1-carbonyl)-4,5-dihydro-1H-pyrazol-5-yl)benzonitrile], 0.1 to 100 nM. `Cn1nc(CO)nc1-c1nc(N2CCN(C(=O)N3N=CC[C@H]3c3cncc(F)c3)CC2)ncc1F` [Compound 174, (S)-(4-(5-fluoro-4-(3-(hydroxymethyl)-1-methyl-1H-1,2,4-triazol-5-yl)pyrimidin-2-yl)piperazin-1-yl)(5-(5-fluoropyridin-3-yl)-4,5-dihydro-1H-pyrazol-1-yl)methanone]: the EC50 lay within 0.1 to 100 nM. Same read-out and setting: with `Cc1csc(C2CC=NN2C(=O)N2CCN(c3ncc(F)c(-n4nc(C)nc4C)n3)CC2)n1` (centres unmarked) [Compound 215] the figure was 0.1 to 100 nM.
